Measured values taken from patent US11253524B2 (Gilead Sciences, Inc., priority 2018, dated 2022).

Assays:
[1] = Precipitation of test compound in transporter assay buffer; format: physicochemical; conditions: 300 μM, MRP2 assay buffer
OATP1B1 = biological target: T1, OATP1B1 (Homo sapiens, UniProt Q9Y6L6); assay: OATP1B1 inhibition assay using 3H-E217βG as probe substrate, HEK293FT cells; format: cell-based; design: expressed in transfected cells; conditions: for IC50 (μM): NIO = no interaction observed
T1 sequence (Q9Y6L6 1-691): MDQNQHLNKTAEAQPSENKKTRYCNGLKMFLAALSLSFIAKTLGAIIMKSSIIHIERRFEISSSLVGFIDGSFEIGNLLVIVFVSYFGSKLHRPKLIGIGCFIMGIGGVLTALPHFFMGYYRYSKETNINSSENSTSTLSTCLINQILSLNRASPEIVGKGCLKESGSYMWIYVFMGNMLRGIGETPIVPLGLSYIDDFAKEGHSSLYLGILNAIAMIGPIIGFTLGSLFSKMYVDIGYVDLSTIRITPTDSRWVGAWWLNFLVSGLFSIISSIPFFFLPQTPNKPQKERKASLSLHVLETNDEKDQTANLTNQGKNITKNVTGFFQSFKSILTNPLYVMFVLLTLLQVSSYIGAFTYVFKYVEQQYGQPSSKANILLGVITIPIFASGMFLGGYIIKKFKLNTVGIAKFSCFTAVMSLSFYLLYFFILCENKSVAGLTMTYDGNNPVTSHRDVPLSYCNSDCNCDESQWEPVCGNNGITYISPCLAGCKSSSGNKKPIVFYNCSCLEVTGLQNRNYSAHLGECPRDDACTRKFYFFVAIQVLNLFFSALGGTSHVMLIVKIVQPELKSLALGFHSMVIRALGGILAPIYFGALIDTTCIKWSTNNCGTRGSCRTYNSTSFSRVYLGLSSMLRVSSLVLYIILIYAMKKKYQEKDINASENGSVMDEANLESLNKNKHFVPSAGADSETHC
Description: HEK293FT-Mock and OATP-transfected cells (1×10^5 cells each) were seeded 24 hr prior to assay. Pre-rinsed ells were incubated for 3 minutes with 1 μM ^3H-E217βG in HK buffer in the presence of various concentrations of test compound or positive control rifampicin. After the experiment cells were rinsed with Krebs-Henseleit buffer and lysed with 0.1 M NaOH. The amount of substrate inside the cells was determined by liquid scintillation reader.
Percent inhibition was calculated according to the following equation: % inhibition=[1−{[OATP]i−[WT]ni}/{[OATP]ni−[WT]ni}]*100 where: [OATP]i represent the substrate accumulation in the presence of test compound for either OATP1B1, OATP1B3, or OATP2B1 cells; [OATP]ni represents the substrate accumulation in the absence of test compound for either OATP1B1, OATP1B3, or OATP2B1 cells, respectively; and [WT]ni represents the substrate accumulation in the absence of test compound for wild type cells or Mock cells, respectively. IC50 Determination in Transporter Assays
IC50 was determined according to the procedures described in Example 5. […] Results are reported as NIO (no interaction observed).

[2] = Stability of synthetic M15 observed during purification; format: physicochemical
Description: Anomeric bromination of 1 with 33% HBr in acetic acid gave bromide 2 in 70% crystallized yield. Treatment of phenol 3 with bromide 2 in the presence of Ag2CO3 in acetonitrile at 60° C. produced compound 4 in 75% yield after reverse phase chromatography. Deprotection of 4 with triethylamine in methanol/water gave clean conversion to glucuronic acid 5 (M15). The reaction was stopped at 90% conversion since the amount of 3 present in the reaction started to increase. The mixture was purified by reverse phase chromatography with 0.1% TFA in the chromatography solvent. The free acid was isolated after lyophilization, however it contained a significant amount of 3. […] Another batch was purified using the same method as before but the TFA was neutralized with triethylamine before lyophilization. The compound was stable to the conditions but contained a large amount of triethylammonium trifluoroacetate. Not all salt was removed. The material was purified by reverse phase chromatography but without TFA in the solvent. After lyophilization the triethylamine salt of M15 (5) was isolated in high purity and 24% overall yield.

[3] = tested on: cryopreserved hepatocytes; assay: Metabolites of [14C]BIC in cryopreserved hepatocytes, human; format: in vitro ADME; conditions: 4 hours, [14C]BIC 20 μM
Description: (§1) Metabolic pathways included hydroxylation (3 variants), N-dealkylation, and direct glucuronidation. All human metabolites were also observed in nonclinical species. Using the hepatocyte system where the full range of hepatic metabolic enzymes are represented, it appeared that the metabolism of BIC was extensive in monkey and dog but lower in rat and human.

[4] = tested on: cryopreserved hepatocytes; assay: Metabolites of [14C]BIC in cryopreserved hepatocytes, rat; format: in vitro ADME; conditions: Wister-Han Rat hepatocytes, 4 hours, [14C]BIC 20 μM
Description: as §1

[5] = tested on: cryopreserved hepatocytes; assay: Metabolites of [14C]BIC in cryopreserved hepatocytes, dog; format: in vitro ADME; conditions: Beagle Dog hepatocytes, 4 hours, [14C]BIC 20 μM
Description: as §1

[6] = In vivo BIC metabolism, plasma profile after oral [14C]BIC, mouse; conditions: transgenic mice, 0 to 48 hours post dose, ND = not detected
Description: Metabolic pathways included hydroxylation, oxidative defluorination, direct glucuronidation, and oxidation followed by phase II conjugation. In the monkey, BIC was metabolized through the oxidative pathways to a greater extent compared to rat and human.

[7] = tested on: cryopreserved hepatocytes; assay: Metabolites of [14C]BIC in cryopreserved hepatocytes, monkey; format: in vitro ADME; conditions: Cynomolgus Monkey hepatocytes, 4 hours, [14C]BIC 20 μM
Description: as §1

Compound	Precipitation in assay buffer [1]	IC50 (μM) (OATP1B1)	Maximum inhibition at highest test conc. (% of control) (OATP1B1; at 100 μM)	inhibition at 3 min, 100 µM (OATP1B1; human, HEK293FT cells transfected with OATP1B1, probe 3H-E217βG (1 μM), at 100 μM, read-out: Maximum inhibition at highest test conc. (% of control))	Stability of the free acid ([2]; free acid, neutral or acidic conditions)	Stability of the triethylamine salt ([2]; triethylamine salt)	Fraction of Radiochromatogram (%) [3]	Fraction of Radiochromatogram (%) [4]	Fraction of Radiochromatogram (%) [5]	% of Total Radioactivity in AUC Pooled Plasma [6]	Fraction of Radiochromatogram (%) [7]
O=C(NCc1c(F)cc(F)c(OS(=O)(=O)O)c1F)c1cn2c(c(O)c1=O)C(=O)N1C(C2)O[C@@H]2CC[C@H]1C2 (stereo partly drawn) [Metabolite M20]	Precipitation was observed	NIO*	no dose dependent inhibition	12%							
O=C(NCc1c(F)cc(F)cc1F)c1cn2c(c(O[C@@H]3O[C@H](C(=O)O)[C@@H](O)[C@H](O)[C@H]3O)c1=O)C(=O)N1[C@H]3CC[C@H](C3)O[C@@H]1C2 [Metabolite M15]					unstable in either neutral or acidic conditions	appeared to be stable					
O=C(NCc1c(F)cc(F)cc1F)c1cn2c(c(O)c1=O)C(=O)N1[C@H]3CC[C@H](C3)O[C@@H]1C2 [BIC, bictegravir, reference compound]		NIO					93.9%	91.5%	78.7%	95.5%	52.4%
